One assay deals with Cathepsin B (Homo sapiens, UniProt P07858). Briefly: Cathepsin B inhibition, fluorogenic peptide substrate kinetic assay. It is filed as biochemical. To be noted: Table III; Cathepsin B inhibition constant, pH5.5; read-out: Ki Cat. B. The procedure: The optimal substrate for cathepsin B, acetyl-histidine-proline-valine-lysine-amino carbamoyl coumarin, was identified from screening a combinatorial library of fluorogenic peptide substrates (Harris, J. L., B. J. Backes, et al., Proc Natl Acad Sci USA 2000, 97(14), 7754-9). Kinetic measurements are performed in a total reaction volume of 30 μl in 384-well microtiter plates. Cathepsin B, at a final concentration of 1.5 nM (active site), is incubated with the compounds at twelve varying concentrations in a buffer containing 100 mM NaAc (pH5.5), 1 mM EDTA, 100 mM NaCl, 0.01% Brij-35 for 20 minutes at room temperature. Control reactions in the absence of inhibitor are performed in replicates of 24. The reactions are initiated by adding the substrate, acetyl-histidine-proline-valine-lysine-amino carbamoyl coumarin, to a final concentration of 10 μM. The rate of substrate hydrolysis is measured by monitoring the increase in fluorescence at an excitation wavelength of 380 nm and an emission wavelength of 450 nm that results from cleavage of the aniline bond in the substrate by the enzyme. The apparent inhibition constants for the compounds are determined from the enzyme progress curves (Kuzmie, P., K. C. Elrod, et al., Anal Biochem 2000, 286(1), 45-50) and are then used to calculate the inhibition constants for competitive inhibitors.

A further assay has as its target Cathepsin S (Homo sapiens, UniProt P25774). Description: Cathepsin S inhibition, fluorogenic peptide substrate kinetic assay. It is filed as biochemical. To be noted: Table II; Cathepsin S inhibition constant, pH5.5; read-out: Ki Cat. S. Summed up:
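Ki values derive from apparent constants fitted to progress curves, corrected for competition with substrate via [S] and Km. Kinetics were monitored at 380 nm excitation/450 nm emission, after substrate addition (Ac-HPVK-ACC, 50 μM final) to start the reaction.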

Chain of Cathepsin S (P25774 115-331, species assumed): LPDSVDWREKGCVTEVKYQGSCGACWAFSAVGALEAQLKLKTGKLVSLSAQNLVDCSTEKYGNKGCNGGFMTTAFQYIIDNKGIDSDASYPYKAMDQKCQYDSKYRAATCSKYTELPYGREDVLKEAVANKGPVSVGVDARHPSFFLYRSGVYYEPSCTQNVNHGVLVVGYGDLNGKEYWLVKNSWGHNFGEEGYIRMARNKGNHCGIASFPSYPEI

`COc1cccc(C(=O)N[C@@H](CCC2CCCCC2)C(=O)N[C@H](CN2CCc3cc(F)ccc32)c2ccccc2)c1` [Compound 51, (S,S)-N-{3-Cyclohexyl-1-[2-(5-fluoro-2,3-dihydro-indol-1-yl)-1-phenyl-ethylcarbamoyl]-propyl}-3-methoxy-benzamide]: the Ki (as a rule, the equilibrium dissociation constant of an inhibitor or competing ligand from its target) on Cathepsin B is greater than 10000 nM.

Take `COc1ccc(NCC(C)NC(=O)[C@H](CC(C)C)NC(=O)c2cccc(C)c2)cc1` (mixture of isomers) [Compound 21, N-{1-(S)-[2-(4-Methoxy-phenylamino)-1-methyl-ethylcarbamoyl]-3-methyl-butyl}-3-methyl-benzamide]: the Ki at Cathepsin B was greater than 10000 nM.

As for `CS(=O)(=O)NCc1ccc(C(=O)N[C@@H](CC2CCCCC2)C(=O)NCCN2CCc3cc(F)ccc32)cc1` [Compound 79, N-(S)-{2-cyclohexyl-1-[2-(5-fluoro-2,3-dihydro-indol-1-yl)-ethylcarbamoyl]-ethyl}-4-(methanesulfonylamino-methyl)-benzamide], at Cathepsin S, the Ki was less than 100 nM.

For `COc1ccc(NC[C@H](C)NC(=O)[C@H](CC2CCCCC2)NC(=O)c2ccc(-c3cccc(F)c3)o2)cc1` [Compound 86, 5-(3-Fluoro-phenyl)-furan-2-carboxylic acid {2-cyclohexyl-1-(S)-[2-(4-methoxy-phenylamino)-1-(S)-methyl-ethylcarbamoyl]-ethyl}-amide], at Cathepsin S, the Ki is less than 100 nM.

Regarding `CS(=O)(=O)c1cccc(C(=O)N[C@@H](CC2CCCCC2)C(=O)NCCN2CCc3cc(F)ccc32)c1` [Compound 80, N-(S)-{2-cyclohexyl-1-[2-(5-fluoro-2,3-dihydro-indol-1-yl)-ethylcarbarnoyl]-ethyl}-3-methanesulfonyl-benzamide], the Ki at Cathepsin S is less than 100 nM.

As to `O=C(N[C@@H](CC1CCCCC1)C(=O)NCCN1CCc2cc(F)ccc21)c1ccc(-c2cccc(C(F)(F)F)c2)o1` [Compound 2, 5-(3-Trifluoromethyl-phenyl)-furan-2-carboxylic acid (S)-{2-cyclohexyl-1-[2-(5-fluoro-2,3-dihydro-indol-1-yl)-ethylcarbamoyl]-ethyl}-amide], the Ki at Cathepsin S was less than 100 nM.

For `C[C@@H](CNc1ccc(OC(F)(F)F)cc1)NC(=O)[C@H](CC1CCCC1)NC(=O)O[C@H]1CCOC1` [Compound 192, (S,S)-{2-Cyclopentyl-1-[1-methyl-2-(4-trifluoromethoxy-phenylamino)-ethylcarbamoyl]-ethyl}-carbamic acid tetrahydrofuran-3-(S)-yl ester], the Ki on Cathepsin S was less than 100 nM.

As to `COc1cccc(C(=O)N[C@@H](CCC2CCCCC2)C(=O)N[C@@H](CCCCNC(=O)OCc2ccccc2)CN2CCc3cc(F)ccc32)c1` [Compound 55, (S,S)-[5-[4-Cyclohexyl-2-(3-methoxy-benzoylamino)-butyrylamino]-6-(5-fluoro-2,3-dihydro-indol-1-yl)-hexyl]-carbamic acid benzyl ester], at Cathepsin S, the Ki was less than 1000 nM.

For `Cc1noc(C)c1S(=O)(=O)N[C@@H](CC1CCCCC1)C(=O)N[C@@H](C)CN1CCc2cc(F)ccc21` [Compound 263, (S,S)-3-Cyclohexyl-2-(3,5-dimethyl-isoxazole-4-sulfonylamino)-N-[2-(5-fluoro-2,3-dihydro-indol-1-yl)-1-methyl-ethyl]-propionamide], the Ki at Cathepsin S was less than 100 nM.

For `C[C@@H](CNc1ccc(OC(F)(F)F)cc1)NC(=O)[C@H](CC1CCCCC1)NC(=O)c1cc(-c2cccc(F)c2)no1` [Compound 145, 3-(3-Fluoro-phenyl)-isoxazole-5-carboxylic acid {2-cyclohexyl-1-(S)-[1-(S)-methyl-2-(4-trifluoromethoxy-phenylamino)-ethylcarbamoyl]-ethyl}-amide], the Ki on Cathepsin S is less than 1000 nM.

Consider `O=C(N[C@@H](Cc1cccc(Cl)c1)C(=O)NCCN1CCc2cc(F)ccc21)c1ccc(-c2cccc(C(F)(F)F)c2)o1` [Compound 196, N-((S)-1-(2-(5-fluoroindolin-1-yl)ethylcarbamoyl)-2-(3-chlorophenyl)ethyl)-5-(3-(trifluoromethyl)phenyl)furan-2-carboxamide], for which the Ki at Cathepsin S was less than 1000 nM.

As to `COc1cccc(C(=O)N[C@@H](Cc2ccc(F)cc2)C(=O)N[C@@H](COCc2ccccc2)CN2CCc3cc(F)ccc32)c1` [Compound 37, N-[1-(S)-[1-(R)-Benzyloxymethyl-2-(5-fluoro-2,3-dihydro-indol-1-yl)-ethylcarbamoyl]-2-(4-fluoro-phenyl)-ethyl]-3-methoxy-benzamide], the Ki on Cathepsin S was less than 100 nM.

In the case of `Cc1cccc(S(=O)(=O)N[C@@H](CC2CCCCC2)C(=O)NCCN2CCc3cc(F)ccc32)c1` [Compound 243, (S)-3-Cyclohexyl-N-[2-(5-fluoro-2,3-dihydro-indol-1-yl)-ethyl]-2-(toluene-3-sulfonylamino)-propionamide], on Cathepsin S, the Ki is less than 100 nM.

Consider `C[C@@H](CNc1ccc(OC(F)(F)F)cc1)NC(=O)[C@H](CC1CCCCC1)NC(=O)c1ccc(-c2cccc(F)c2)o1` [Compound 83, 5-(3-Fluoro-phenyl)-furan-2-carboxylic acid {2-cyclohexyl-1-(S)-[1-(S)-methyl-2-(4-trifluoromethoxy-phenylamino)-ethylcarbamoyl]-ethyl}-amide], for which the Ki on Cathepsin S was less than 100 nM.

`C[C@@H](CNc1ccc(OC(F)(F)F)cc1)NC(=O)[C@H](CC(C)(C)C)NC(=O)C1CCOCC1` [Compound 269, Tetrahydropyran-4-carboxylic acid {3,3-dimethyl-1-(S)-[1-(S)-methyl-2-(4-trifluoromethoxy-phenylamino)-ethylcarbamoyl]-butyl}-amide]: the Ki at Cathepsin S is less than 1000 nM.

For `Cc1cccc(C(=O)N[C@@H](Cc2ccc(Cl)cc2)C(=O)NCCN2CCc3cc(F)ccc32)c1` [Compound 199, N-((S)-1-(2-(5-fluoroindolin-1-yl)ethylcarbamoyl)-2-(4-chlorophenyl)ethyl)-3-methylbenzamide], the Ki on Cathepsin S is less than 100 nM.

For `C[C@@H](CNc1cccc(C(N)=O)c1)NC(=O)[C@H](CC1CCCCC1)NC(=O)c1ccc(-c2cccc(F)c2)o1` [Compound 98, 5-(3-Fluoro-phenyl)-furan-2-carboxylic acid {1-(S)-[2-(3-carbamoyl-phenylamino)-1-(S)-methyl-ethylcarbamoyl]-2-cyclohexyl-ethyl}-amide], at Cathepsin S, the Ki was less than 100 nM.

As to `C[C@@H](CNc1ccc(S(N)(=O)=O)cc1)NC(=O)[C@H](CC1CCCCC1)NC(=O)c1ccc(-c2cccc(F)c2)o1` [Compound 138, 5-(3-Fluoro-phenyl)-furan-2-carboxylic acid {2-cyclohexyl-1-(S)-[1-(S)-methyl-2-(4-sulfamoyl-phenylamino)-ethylcarbamoyl]-ethyl}-amide], on Cathepsin S, the Ki is less than 1000 nM.

Turning to `O=C(N[C@@H](CC1CCCCC1)C(=O)NCCN1CCc2cc(F)ccc21)c1ccc(-c2ccccc2)o1` [Compound 75, 5-Phenyl-furan-2-carboxylic acid (S)-{2-cyclohexyl-1-[2-(5-fluoro-2,3-dihydro-indol-1-yl)-ethylcarbamoyl]-ethyl}-amide], on Cathepsin S, the Ki was less than 100 nM.

In the case of `COc1cccc(C(=O)N[C@@H](CC2CCCCC2)C(=O)N[C@@H](CO)CN2CCc3cc(F)ccc32)c1` [Compound 150, N-{2-Cyclohexyl-1-(S)-[2-(5-fluoro-2,3-dihydro-indol-1-yl)-1-(R)-hydroxymethyl-ethylcarbamoyl]-ethyl}-3-methoxy-benzamide], the Ki at Cathepsin S is less than 100 nM.

`O=C(N[C@@H](CC1CCCCC1)C(=O)NCCN1CCc2cc(F)ccc21)C1CC(=O)N(Cc2cccs2)C1` (stereo partly drawn) [Compound 73, 5-Oxo-1-thiophen-2-ylmethyl-pyrrolidine-3-carboxylic acid (S)-{2-cyclohexyl-1-[2-(5-fluoro-2,3-dihydro-indol-1-yl)-ethylcarbamoyl]-ethyl}-amide]: the Ki on Cathepsin S was less than 100 nM.

In the case of `O=C(N[C@@H](CC1CCCCC1)C(=O)N[C@@H](CO)CN1CCc2cc(F)ccc21)c1ccc(-c2cccc(C(F)(F)F)c2)o1` [Compound 153, 5-(3-Trifluoromethyl-phenyl)-furan-2-carboxylic acid {2-cyclohexyl-1-(S)-[2-(5-fluoro-2,3-dihydro-indol-1-yl)-1-(R)-hydroxymethyl-ethylcarbamoyl]-ethyl}-amide], the Ki at Cathepsin S was less than 100 nM.

(Values after patent US20040248887A1, “Inhibitors of cathepsin S” (IRM LLC, priority 2003, published 2004).)
